Results published in patent publication US9102669B2, “Substituted piperidinyl-pyridazinyl derivatives useful as SCD 1 inhibitors” (Janssen Pharmaceutica NV, priority 2011, dated 2015).

Tests used:
SCD1 [1] = biological target: SCD1 (Rattus norvegicus (Rat), UniProt P07308); test: SCD1 enzymatic assay in rat liver microsomes (RLM); format: biochemical; settings: rat liver microsomes; for inhibition at 1 µM: 1 μM test compound, read-out: % Inh.@ 1 μM
Description: Step 1: Preparation of Rat Liver Microsome (RLM):
Sprague Dawley rats from Charles River (200-225 g) underwent 2-cycle of fast-re-feeding (24-hour fast followed by 24-hour feeding with fat-free high carbohydrate diet, Reseach Diet, D00042802). The livers were removed and homogenized 1:4 (w/v) with pre-chilled, homogenizing buffer (10 mM Tris-HCl, 0.25 M sucrose, 1 mM EDTA, pH 7.4, supplemented with protease inhibitor cocktail). The homogenate was spun at 12,000×g for 15 min at 4° C. The supernatant was then re-centrifuged at 100,000×g for 60 min at 4° C. The pellet was re-suspended in 2 ml pre-chilled […] potassium phosphate buffer, pH 7.2, 10 mM EDTA at a concentration of 20 mg/ml. The resulting rat liver microsome (RLM) preparation was stored at −80° C.
Step 2: SCD1 Enzymatic Assay in RLM:
The SCD1 enzymatic assay was done in a volume of 50 μL using 10 μg of RLM (prepared as described above) in a 96-well polypropylene plate (enzyme reaction buffer contains 0.1 M K-Phosphate Buffer, 10 mM ATP, 6 mM MgCl2. 1 mM CoA, 1 mM β-NADH, 1.6 mM L-glutathione, 20 μM Stearoyl-CoA). Stearoyl-[9,10-^3H]-CoA (ARC-0390, 1 mCi/mL, 60 Ci/mmol,) was added at a final concentration of 2 μCi/mL. Test compound was then added to the reaction mixture at the selected concentration. After incubation at room temperature for 2 hours, 5 μL 1 N HCl was added to stop the reaction, followed by addition of 25 μL of 10% charcoal. The reaction mixture was then transferred to 96-well Multiscreen plate (Millipore, Cat#MSFCN6B50). […] The measured cpm values were fitted with Sigmoidal dose-response curve fit with Graphpad Prism.

SCD1 [2] = biological target: SCD1 (Homo sapiens (Human), UniProt O00767); test: SCD1 13C-palmitic acid assay in A431 cells; format: cell-based; settings: read-out: A431 cells 13C-PA IC50
SCD1 (Homo sapiens (Human), UniProt O00767), sequence (O00767 whole entry): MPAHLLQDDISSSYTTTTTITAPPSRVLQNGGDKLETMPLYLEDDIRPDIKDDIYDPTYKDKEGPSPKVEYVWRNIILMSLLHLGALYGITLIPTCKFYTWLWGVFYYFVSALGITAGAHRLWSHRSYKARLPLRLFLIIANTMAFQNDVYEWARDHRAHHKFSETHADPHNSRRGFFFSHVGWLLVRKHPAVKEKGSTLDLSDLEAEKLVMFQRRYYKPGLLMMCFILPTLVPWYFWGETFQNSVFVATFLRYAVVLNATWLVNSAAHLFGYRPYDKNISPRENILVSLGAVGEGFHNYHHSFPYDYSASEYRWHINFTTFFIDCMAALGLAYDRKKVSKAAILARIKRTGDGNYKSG
Description: Human epithelial carcinoma A431 cells were seeded at 100,000 cells/well in complete growth medium (DMEM, Cellgro#10-013-CM, 4.5 g/L glucose, 10% FBS) in the presence of 0.05 mg/mL human insulin (Hannas Pharmaceutical Supply Co Inc, Humanlin 100 U/ml, 4 mg/ml) in 96-well tissue culture plate. 24 hr later, the cells were washed extensively with Assay Buffer (DMEM, Cellgro#10-013-CM, 4.5 g/L glucose, supplemented with 0.05 mg/mL Human Insulin and 0.1% Fatty Acid Free BSA). […] The cells were then returned to the tissue culture incubator (37° C. and 5% CO2) for 4 hrs. At the end of incubation, the cells were washed three times with 200 μL/well Hanks buffer (HBSS) and then stored at −20° C. until extraction.
For fatty acid extraction, after thawing out the plates, 40 μL of 1N KOH (containing 5 μM of internal standard 7,7,8,8-D4 palmitate) was added to each well and cell plates were incubated at 37° C. for 30 minutes. […] Acetonitrile (100 μL) was then added to extract fatty acids, followed by centrifugation at 3000 rpm for 10 minutes. 75 μL of extract was then transferred to a new glass vial in a 96-well cluster plate. 5 μL was injected for LC/MS analysis for detection of ^13C-palmitic acid and ^13C-palmitoleic acid. Formation of product ^13C-palmitoleic acid was determined as an index of SCD1 activity.
LC/MS analysis was performed as following. An Agilent 1100 Liquid Chromatographic System (Palo Alto, Calif.) consisting of a binary pump, a degasser and an autosampler was used. Separation of free fatty acids was performed on a Zorbax SB-C8 column (2.1×50 mm, particle size=3.5 μm). An isocratic elution was carried out with 10 mM triethylamine acetate in water: acetonitrile (3:7) at a flow rate of 0.3 mL/min. The column temperature was set at 30° C. and the sample injection volume was 5 μL. The LC run cycle was 4 min. A Micromass triple-quadrupole Quattro Micro mass […] (Waters, Beverly, Mass.) was interfaced with the LC system through a Z-spray electrospray ion source and was operated in the negative ion mode. Nitrogen was used as nebulizing gas, desolvation gas and cone curtain gas and argon was chosen as collision gas. The triple quadrupole MS source parameters were set as follows: capillary voltage, 3200V; cone voltage, 25V; exctractor 2V; source temperature, 120° C.; desolvation temperature, 300° C.; cone gas flow, 50 L/h; and desolvation gas flow, 700 L/h. […] MassLynx software version 4.0 was used for system control and data processing. The signal of U-^13C-palmitoleic acid was normalized to an internal standard.

SCD1 (Rattus norvegicus (Rat), UniProt P07308), sequence (P07308 whole entry): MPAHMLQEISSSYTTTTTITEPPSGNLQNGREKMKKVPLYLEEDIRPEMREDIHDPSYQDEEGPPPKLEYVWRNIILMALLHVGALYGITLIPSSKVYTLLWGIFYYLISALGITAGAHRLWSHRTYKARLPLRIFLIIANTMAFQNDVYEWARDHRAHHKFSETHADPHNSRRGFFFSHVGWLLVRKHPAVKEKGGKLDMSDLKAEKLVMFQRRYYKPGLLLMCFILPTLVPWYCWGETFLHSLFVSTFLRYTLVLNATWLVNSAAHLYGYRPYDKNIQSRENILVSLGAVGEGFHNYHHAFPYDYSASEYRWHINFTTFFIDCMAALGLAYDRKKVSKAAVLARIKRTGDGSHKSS

Compound | inhibition at 1 µM (SCD1 [1]) [%] | IC50 (SCD1 [1]) [nM] | IC50 (SCD1 [2]) [nM]
Cn1cc(-c2ccc(N3CCC(N4CCc5cc(F)ccc54)CC3)nn2)cn1 [Compound #46, 5-fluoro-1-(1-(6-(1-methyl-1H-pyrazol-4-yl)pyridazin-3-yl)piperidin-4-yl)indoline] | 85 | 165 | 99
OCc1ccc(-c2ccc(N3CCC(N4CCc5ccc(F)cc54)CC3)nn2)cc1 [Compound #51] | 96 | 22 | 8
Cc1ccc(-c2ccc(N3CCC(N4CCc5ccc(F)cc54)CC3)nn2)s1 [Compound #52, 6-fluoro-1-(1-(6-(5-methylthiophen-2-yl)pyridazin-3-yl)piperidin-4-yl)indoline] | 92 | 121 | 6
Fc1ccc2c(c1)N(C1CCN(c3ccc(-c4ccc(C(F)(F)F)cc4)nn3)CC1)CC2 [Compound #54, 6-fluoro-1-(1-(6-(4-(trifluoromethyl)phenyl)pyridazin-3-yl)piperidin-4-yl)indoline] | 85 | 90 | 54
Cc1ccc2c(c1)N(C1CCN(c3ccc(-c4cnn(C)c4)nn3)CC1)CC2 [Compound #57, 6-methyl-1-(1-(6-(1-methyl-1H-pyrazol-4-yl)pyridazin-3-yl)piperidin-4-yl)indoline] | 72 | 286 | 241
O=C(O)c1ccc(-c2ccc(N3CCC(N4CCc5ccc(F)cc54)CC3)nn2)cc1 [Compound #58, 4-(6-(4-(6-fluoroindolin-1-yl)piperidin-1-yl)pyridazin-3-yl)benzoic acid] | 78 | 349 | 390
Cn1cc(-c2ccc(N3CCC(N4CCc5ccc(Cl)cc54)CC3)nn2)cn1 [Compound #59, 6-chloro-1-(1-(6-(1-methyl-1H-pyrazol-4-yl)pyridazin-3-yl)piperidin-4-yl)indoline] | 99 | 35 | 28
COc1ccc2c(c1)N(C1CCN(c3ccc(-c4cnn(C)c4)nn3)CC1)CC2 [Compound #62, 6-methoxy-1-(1-(6-(1-methyl-1H-pyrazol-4-yl)pyridazin-3-yl)piperidin-4-yl)indoline] | 79 | 317 | 407
CNC(=O)Cn1cc(-c2ccc(N3CCC(N4CCc5ccc(F)cc54)CC3)nn2)cn1 [Compound #64, 2-(4-(6-(4-(6-fluoroindolin-1-yl)piperidin-1-yl)pyridazin-3-yl)-1H-pyrazol-1-yl)-N-methylacetamide] | 102 | 15 | 12
Cn1cc(-c2ccc(N3CCC(N4CCc5cc(Cl)ccc54)CC3)nn2)cn1 [Compound #65, 5-chloro-1-(1-(6-(1-methyl-1H-pyrazol-4-yl)pyridazin-3-yl)piperidin-4-yl)indoline] | 83 | 181 | 218
CCOCc1cnn(-c2ccc(N3CCC(N4CCc5ccc(F)cc54)CC3)nn2)c1 [Compound #72, 1-(1-(6-(4-(ethoxymethyl)-1H-pyrazol-1-yl)pyridazin-3-yl)piperidin-4-yl)-6-fluoroindoline] | 99 | 8 | 9
Fc1ccc2c(c1)N(C1CCN(c3ccc(-c4ccc(C(F)(F)F)nc4)nn3)CC1)CC2 [Compound #76, 6-fluoro-1-(1-(6-(6-(trifluoromethyl)pyridin-3-yl)pyridazin-3-yl)piperidin-4-yl)indoline] | 97 | 16 | 14
CCOCCn1cc(-c2ccc(N3CCC(N4CCc5ccc(F)cc54)CC3)nn2)cn1 [Compound #78, 1-(1-(6-(1-(2-ethoxyethyl)-1H-pyrazol-4-yl)pyridazin-3-yl)piperidin-4-yl)-6-fluoroindoline] | 99 | 12 | 41
